The results in this text go back to patent US7115658B2 (priority 2002, dated 2006).

What is called IC50 is the concentration at which inhibition is half-maximal.

In this assay the target is T1, Recombinant HCV polymerase (Hepatitis C virus genotype 1b, UniProt P26663).
T1 construct: 2.5 pmoles (0.15 μg) HCV polymerase protein
T1 sequence (P26663 2420-3010): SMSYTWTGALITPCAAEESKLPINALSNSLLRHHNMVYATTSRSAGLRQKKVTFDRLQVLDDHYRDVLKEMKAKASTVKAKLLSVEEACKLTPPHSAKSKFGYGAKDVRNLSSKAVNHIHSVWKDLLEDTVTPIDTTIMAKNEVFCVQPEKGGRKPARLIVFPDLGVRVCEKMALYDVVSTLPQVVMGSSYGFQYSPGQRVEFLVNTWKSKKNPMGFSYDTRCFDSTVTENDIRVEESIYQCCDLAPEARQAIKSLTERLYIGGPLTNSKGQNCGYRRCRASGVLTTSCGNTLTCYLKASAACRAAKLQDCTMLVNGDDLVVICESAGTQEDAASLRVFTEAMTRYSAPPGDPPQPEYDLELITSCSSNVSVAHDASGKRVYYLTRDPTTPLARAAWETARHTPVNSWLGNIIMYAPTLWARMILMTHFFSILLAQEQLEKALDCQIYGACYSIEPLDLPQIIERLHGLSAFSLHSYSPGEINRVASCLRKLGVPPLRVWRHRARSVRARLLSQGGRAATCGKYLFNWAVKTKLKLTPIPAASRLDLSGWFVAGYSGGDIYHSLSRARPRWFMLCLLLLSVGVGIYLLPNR
Briefly: HCV Polymerase Inhibition Assay. In kind it is biochemical. Conditions: primer/template-directed transcription, 30 minutes at 30° C.; category symbol. How it is done: The above-described compounds were tested for activity with HCV polymerase. Recombinant HCV polymerase was tested for its ability to perform primer/template-directed transcription in assays that contained 30 mM tris-HCl pH 7.2, 10 mM MgCl2, 20 mM NaCl, 1 mM Dithiothreitol (DTT), 0.05% Tween-20, 1% glycerol, 5 pmoles biotin-dG12 (primer), 0.5 pmoles poly(rC)300 (template), 1 μM GTP, 0.1–0.3 uCi α-^32P-GTP, and 2.5 pmoles (0.15 μg) HCV polymerase protein in a final volume of 75 μL. Reactions were initiated by addition of enzyme and incubated 30 minutes at 30° C. Reactions were stopped by addition of 33 mM EDTA, and polynucleotide products were collected by filtration through Diethylaminoethyl (DE) Filtermat papers (Wallac). Unincorporated triphosphate was removed by washing the filters with 5% dibasic sodium phosphate. The filters were counted in a Packard Tri-Lux Microbeta scintillation counter (Packard Bioscience, Meriden, Conn.). Compounds to be tested were added at various concentrations, e.g., 1 μm to 50 μm, from stocks in 10% DMSO-water (final DMSO is 1% in reaction).
IC50 values were estimated from the primary cpm data (collected in triplicate) using the formula: cpm (I)=cpm (no inhibitor)(1−([I]/([I]+IC50))). An IC50 value represents the concentration (in μM) of a compound that provides 50% inhibition of polymerase-directed transcription in the above assay. A percent inhibition value is expressed for a compound where it was impractical to calculate an IC50 value with available data. If the IC50 estimated by the above equation was less than 200 nM, it was recalculated using the following equation, which takes into account the enzyme concentration (30 nM) in the assay: cpm(I)=cpm(no inhibitor)(1−((((I+IC50+30e−9)−sqrt(((I+IC50+30e−9)^2)−4×30e−9×I)))/((2) (30e−9))). Curve fitting was performed using the program KaleidaGraph (Synergy Software, Reading, Pa.).
Take `CC(=O)c1ccc(CCC2(C3CCCC3)CC(O)=CC(=O)O2)cc1C` (stereo not drawn) [Example 17, 6-[2-(4-Acetyl-3-methyl-phenyl)-ethyl]-6cyclopentyl-4-hydroxy-5,6-dihydro-pyran-2-one]: the IC50 was in the range of 1 to 10 µM.
Turning to `CC(C)(C#N)c1cccc(CCC2(C3CCCC3)CC(=O)CC(=O)O2)c1` (stereo not drawn) [Example 13, 2-{3-[2-(2-Cyclopentyl-4,6-dioxo-tetrahydro-pyran-2-yl)-ethyl]-phenyl}-2-methyl-propionitrile], the IC50 was in the range of 1 to 10 µM.
For `Cc1cc(SC2=C(O)CC(C)(C)OC2=O)c(C(C)(C)C)cc1N` [Example 89, 3-[(4-amino-2-tert-butyl-5-methylphenyl)thio]-4-hydroxy-6,6-dimethyl-5,6-dihydro-2H-pyran-2-one], the IC50 was more than 50 µM.
`Cc1cc(SC2=C(O)CC(CCc3ccc(O)cc3)(C3CCCCC3)OC2=O)c(C(C)(C)C)cc1OS(=O)(=O)c1ccc(C#N)cc1` (stereo not drawn) [Example 139, 4-Cyano-benzenesulfonic acid 5-tert-butyl-4-{6-cyclohexyl-4-hydroxy-6-[2-(4-hydroxy-phenyl)-ethyl]-2-oxo-5,6-dihydro-2H-pyran-3-ylsulfanyl}-2-methyl-phenyl ester]: the 50% inhibitory concentration (IC50) lay in the range of 1 to 10 µM.
As for `COc1cc(OC)c(CCC2(C3CCCC3)CC(O)=C(Sc3nc4ccc(C(=O)O)cc4[nH]3)C(=O)O2)cc1Cl` (stereo not drawn) [Example 99, 2-({6-[2-(5-chloro-2,4-dimethoxyphenyl)ethyl]-6-cyclopentyl-4-hydroxy-2-oxo-5,6-dihydro-2H-pyran-3-yl}thio)-1H-benzimidazole-5-carboxylic acid], the IC50 was less than 1 µM.
The same measure for `Cc1cc(SC2=C(O)C[C@](CCc3cccc(O)c3)(C3CCCC3)OC2=O)c(C(C)(C)C)cc1CO` [Example 153, (R)-3-(2-tert-butyl-4-hydroxymethyl-5-methyl-phenylsulfanyl)-6-cyclopentyl-4-hydroxy-6-[2-(3-hydroxy-phenyl)-ethyl]-5,6-dihydro-pyran-2-one]: less than 1 µM.
On to `CC1(c2ccc(CCC3(C4CCCC4)CC(=O)CC(=O)O3)cc2)CC(=O)CC(=O)O1` (stereo not drawn) [Example 66], for which the half-inhibitory concentration (IC50) is less than 1 µM.
On to `COc1cccc(CCC2(C3CCCC3)CC(O)=CC(=O)O2)c1` (stereo not drawn) [Example 16, 6-Cyclopentyl-4-hydroxy-6-[2-(3-methoxy-phenyl)-ethyl]-5,6-dihydropyran-2-one], for which the IC50 is 10 to 50 µM.
On to `COc1cc(OC)c(CCC2(C3CCCC3)CC(O)=C(Sc3ncc(CO)n3C)C(=O)O2)cc1Cl` (stereo not drawn) [Example 98, 6-[2-(5-chloro-2,4-dimethoxyphenyl)ethyl]-6-cyclopentyl-4-hydroxy-3-([5-(hydroxymethyl)-1-methyl-1H-imidazol-2-yl]thio)-5,6-dihydro-2H-pyran-2-one], for which the IC50 is less than 1 µM.
Turning to `O=C1CC(=O)OC(CCc2ccc(OC3CCC3)c(F)c2)(C2CCCC2)C1` (stereo not drawn) [Example 56, 6-[2-(4-Cyclobutoxy-3-fluoro-phenyl)-ethyl]-6-cyclopentyl-dihydro-pyran-2,4-dione], the IC50 was 1 to 10 µM.
As for `COc1ccc(CCC2(C3CCCC3)CC(O)=C(Sc3nnc(O)n3C)C(=O)O2)cc1` (stereo not drawn) [Example 117, 6-Cyclopentyl-4-hydroxy-3-[(5-hydroxy-4-methyl-4H-1,2,4-triazol-3-yl)thio]-6-[2-(4-methoxyphenyl)ethyl]-5,6-dihydro-2H-pyran-2-one], the IC50 is 1 to 10 µM.
In the case of `COc1ccc(Oc2cccc(CCC3(C4CCCC4)CC(O)=CC(=O)O3)c2)cc1` (stereo not drawn) [Example 45, 6-cyclopentyl-6-{2-[3-(4-methoxyphenoxy)phenyl]ethyl}-4-hydroxy-5,6-dihydro-2H-pyran-2-one], the IC50 fell in the range of 10 to 50 µM.
As to `CC(=O)Nc1cc(C(C)(C)C)c(SC2=C(O)CC(CCc3ccc(O)cc3)(C3CCCC3)OC2=O)cc1C` (racemic) [Example 140, (+/−)N-(5-tert-butyl-4-{6-cyclopentyl-4-hydroxy-6-[2-(4-hydroxy-phenyl)-ethyl]-2-oxo-5,6-dihydro-2H-pyran-3-ylsulfanyl}-2-methyl-phenyl)-acetamide], the IC50 lay in the range of 1 to 10 µM.
Take `O=C1C=C(O)CC(CCc2ccc(OCc3ccc(Cl)c(Cl)c3)cc2)(C2CCCC2)O1` (stereo not drawn) [Example 51, 6-Cyclopentyl-6-(2-{4-[(3,4-dichlorobenzyl)oxy]phenyl}ethyl)-4-hydroxy-5,6-dihydro-2H-pyran-2-one]: the IC50 lay within 10 to 50 µM.
With `CCOc1ccc(CCC2(C3CCCC3)CC(=O)CC(=O)O2)cc1Cl` (stereo not drawn) [Example 44], the IC50 was less than 1 µM.
As to `CC(C)Oc1ccc(CCC2(C3CCCC3)CC(=O)CC(=O)O2)cc1` (stereo not drawn) [Example 41, 6-Cyclopentyl-6-[2-(4-isopropoxy-phenyl)-ethyl]-dihydro-pyran-2,4-dione], the IC50 lay within 1 to 10 µM.
As for `COc1cc(OC)c(CCC2(C3CCCC3)CC(O)=C(Sc3nc(O)c4cc[nH]c4n3)C(=O)O2)cc1Cl` (stereo not drawn) [Example 105, 6-[2-(5-Chloro-2,4-dimethoxyphenyl)ethyl]-6-cyclopentyl-4-hydroxy-3-[(4-hydroxy-7H-pyrrolo[2,3-d]pyrimidin-2-yl)thio]-5,6-dihydro-2H-pyran-2-one], the figure is less than 1 µM; as for `O=C1CC(=O)OC(CCc2ccc(C(=O)N3CCOCC3)cc2)(C2CCCC2)C1` (stereo not drawn) [Example 68, 6-Cyclopentyl-6-{2-[4-(morpholine-4-carbonyl)-phenyl]-ethyl}-dihydro-pyran-2,4-dione], more than 50 µM; as for `O=C1CC(=O)OC(CCc2ccc(F)c(Cl)c2)(C2CCCC2)C1` (stereo not drawn) [Example 31, 6-[2-(3-Chloro-4-fluoro-phenyl)-ethyl]-6-cyclopentyl-dihydro-pyran-2,4-dione], 1 to 10 µM.
With `COc1ccc(CCC2(C3CCCC3)CC(=O)CC(=O)O2)cc1Cl` (stereo not drawn) [Example 27, 6-[2-(3-Chloro-4-methoxy-phenyl)-ethyl]-6-cyclopentyl-dihydro-pyran-2,4-dione], the IC50 lay within 1 to 10 µM.
As for `Cc1cc(SC2=C(O)C[C@@](CCc3cccc(O)c3)(C3CCCC3)OC2=O)c(C(C)(C)C)cc1CO` [Example 152, (S)-3-(2-tert-butyl-4-hydroxymethyl-5-methyl-phenylsulfanyl)-6-cyclopentyl-4-hydroxy-6-[2-(3-hydroxy-phenyl)-ethyl]-5,6-dihydro-pyran-2-one], the IC50 is 1 to 10 µM.
Regarding `CC1(c2ccc(CCC3(C4CCCC4)CC(=O)CC(=O)O3)cc2Cl)OCCO1` (stereo not drawn) [Example 62, 6-{2-[3-Chloro-4-(2-methyl-[1,3]dioxolan-2-yl)-phenyl]-ethyl}-6-cyclopentyl-dihydro-pyran-2,4-dione], the IC50 was less than 1 µM.
`O=C1CC(=O)OC(CCc2ccc3c(c2)OCO3)(C2CCCC2)C1` (stereo not drawn) [Example 23, 6-(2-Benzo[1,3]dioxol-5-yl-ethyl)-6-cyclopentyl-dihydro-pyran-2,4-dione]: the IC50 fell in the range of 10 to 50 µM.
Turning to `COc1ccc(CCC2(C3CCCC3)CC(O)=C(Sc3nc4ccccc4[nH]3)C(=O)O2)cc1Cl` (stereo not drawn) [Example 128, 3-(1H-Benzoimidazol-2-ylsulfanyl)-6-[2-(3-chloro-4-methoxy-phenyl)-ethyl]-6-cyclopentyl-4-hydroxy-5,6-dihydro-pyran-2-one], the IC50 was less than 1 µM.
`O=C1C=C(O)CC(CCCc2ccccc2)(C2CCCC2)O1` (stereo not drawn) [Example 21, 6-Cyclopentyl-4-hydroxy-6-(3-phenyl-propyl)-5,6-dihydro-pyran-2 one]: the half-maximal inhibitory concentration (IC50) was more than 50 µM.
Take `COc1cc(OC)c(CCC2(C3CCCC3)CC(O)=C(Sc3nnnn3CCN(C)C)C(=O)O2)cc1Cl` (stereo not drawn) [Example 107, 6-[2-(5-Chloro-2,4-dimethoxyphenyl)ethyl]-6-cyclopentyl-3-({1-[2-(dimethylamino)ethyl]-1H-tetraazol-5-yl}thio)-4-hydroxy-5,6-dihydro-2H-pyran-2-one]: the half-maximal inhibitory concentration (IC50) was less than 1 µM.
With “6-Cyclopentyl-6-[2-(4-methoxy-phenyl)-ethyl]-3-[2-(3-methyl-isoxazol-5-yl)-acetyl]-dihydro-pyran-2,4-dione [Example 165]”, the IC50 lay within 10 to 50 µM.
Regarding `C=CCOCCC1(C2CCCC2)CC(O)=C(Sc2nc3nc(C)cc(C)n3n2)C(=O)O1` (stereo not drawn) [Example 104, 6-(2-Allyloxy-ethyl)-6-cyclopentyl-3-(5,7-dimethyl-[1,2,4]triazolo[1,5-a]pyrimidin-2-ylsulfanyl)-4-hydroxy-5,6-dihydro-pyran-2-one], the IC50 lay in the range of 10 to 50 µM.
Take `Cc1cccc(CCC2(C3CCCC3)CC(=O)CC(=O)O2)c1` (stereo not drawn) [Example 36, 6-Cyclopentyl-6-(2-m-tolyl-ethyl)-dihydro-pyran-2,4-dione]: the 50% inhibitory concentration (IC50) is 10 to 50 µM.
The same measure for `COc1ccc(CCC2(C3CCCC3)CC(O)=C(Sc3nnc(C)s3)C(=O)O2)cc1Cl` (stereo not drawn) [Example 125, 6-[2-(3-Chloro-4-methoxy-phenyl)-ethyl]-6-cyclopentyl-4-hydroxy-3-(5-methyl-[1,3,4]thiadiazol-2-ylsulfanyl)-5,6-dihydro-pyran-2-one]: less than 1 µM.
